Measured values from PubChem BioAssay (NCI).
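Interpolation was linear, between the two tested concentrations surrounding the appropriate level; five concentrations were tested over 48 hours in 96-well plates. At the GI50, growth is halved. At the TGI there is no net growth.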

What follows are compounds tested on MDA-MB-231 breast (assay: inhibition of tumour cell growth, NCI panel, 48 h).
`NNC(=O)C(O)C(O)C(=O)NN` (configuration not stated) was tested, and the TGI was > 100 µM.

What follows are compounds tested on NCI-H522 lung (assay: inhibition of tumour cell growth, NCI panel, 48 h).
For `CN1CCN(c2ccc3nc(-c4ccc(OCCCCN5CCN(CCCCN6C(=O)c7cccc8cccc(c78)C6=O)CC5)cc4)[nH]c3c2)CC1`, the GI50 was 52.9 µM and the TGI was > 100 µM. With `CC1=C(N2CC2)C(=O)c2ccccc2C1=O` the TGI was 2.36 µM. In the case of `NC(=O)c1ccc(N(C(N)=O)c2c(F)cccc2F)nc1-c1ccc(F)cc1F`, the GI50 is reported as > 100 µM and the TGI is reported as > 100 µM. For `Cc1ccc(S(=O)(=O)NC(CO)C(=O)O)cc1` (configuration not stated), the TGI was > 100 µM. With H-QIYKKYRTWYRKAWKVLGKV-NH2 the GI50 was 25.8 µM and the TGI was > 100 µM. With `COc1cccc(NC2=C(Cl)C(=O)N(Cc3ccc(Cl)cc3)C2=O)c1` the GI50 was 4.76 µM and the TGI was 22.9 µM. In the case of `CC(N1CCOCC1)C(O)(c1ccccc1)c1ccccn1` (configuration not stated), the TGI is reported as > 100 µM. `CC(/C=N/N=C(N)N)=N\N=C(N)N` gave a GI50 of 25.1 µM and a TGI of 248 µM. With `O=C(CCCCCCCCC(=O)N/N=C\c1cc(Cl)ccc1O)N/N=C\c1cc(Cl)ccc1O` the GI50 was 0.31 µM and the TGI was > 100 µM. For `Oc1ccc(Cl)cc1/C=N\NC(=S)N/N=C/c1cc(Cl)ccc1O`, the GI50 was 1.45 µM and the TGI was 5.15 µM. In the case of `COc1cc(Cn2c(-c3ccccc3)cc3c2-c2oncc2CC3)cc(OC)c1`, the GI50 is reported as 0.0891 µM and the TGI is reported as 1.98 µM. In the case of `COc1cc2c(cc1OCCCOc1ccc(-c3nc4ccc(N5CCN(C)CC5)cc4[nH]3)cc1)N=C[C@@H]1CCCN1C2=O`, the GI50 is reported as < 0.01 µM and the TGI is reported as < 0.01 µM. With `Cc1ccc(-c2n[nH]c(=O)c3noc(-c4ccc(C)cc4)c23)cc1` the GI50 was 0.411 µM and the TGI was 4.98 µM. With `Nc1ccn(C2OC(C(OC3OC(CO)C(O)C(N)C3O)C(O)C(O)C(O)C(O)CO)C(N)C(O)C2O)c(=O)n1` (configuration not stated) the TGI was 93.5 µM. `COc1ccc2c(c1)/C(=N/OC(C)=O)c1c-2cnc2ccccc12` gave a GI50 of 22.3 µM and a TGI of 65.5 µM. For `CCOC(=O)c1c(C)n(Cc2ccccc2)c2c1cc1oc(=O)c(=O)n3cnc2c13`, the GI50 was > 50 µM and the TGI was > 50 µM. `CN(C(=O)CNC(=O)/C=C/c1cccc(Cl)c1)C1CCS(=O)(=O)CC1` was tested, and the GI50 was 1.17 µM and the TGI was > 100 µM. `C/C(=N/O)c1ccc(Nc2cc(-n3ccnc3)c3ccccc3n2)cc1` was tested, and the GI50 was 35.8 µM and the TGI was > 100 µM. `NNC(=O)C(O)C(O)C(=O)NN` (configuration not stated) was tested, and the TGI was > 100 µM.

These compounds were tested on SF-295 CNS (assay: inhibition of tumour cell growth, NCI panel, 48 h).
With `CN1CCN(c2ccc3nc(-c4ccc(OCCCCN5CCN(CCCCN6C(=O)c7cccc8cccc(c78)C6=O)CC5)cc4)[nH]c3c2)CC1` the GI50 was 62.4 µM and the TGI was > 100 µM. `CC1=C(N2CC2)C(=O)c2ccccc2C1=O` showed a TGI of 2.48 µM. In the case of `NC(=O)c1ccc(N(C(N)=O)c2c(F)cccc2F)nc1-c1ccc(F)cc1F`, the GI50 is reported as > 100 µM and the TGI is reported as > 100 µM. In the case of `Cc1ccc(S(=O)(=O)NC(CO)C(=O)O)cc1` (configuration not stated), the TGI is reported as > 100 µM. Compound H-QIYKKYRTWYRKAWKVLGKV-NH2 has a GI50 of 4.72 µM and a TGI of 23.9 µM. `COc1cccc(NC2=C(Cl)C(=O)N(Cc3ccc(Cl)cc3)C2=O)c1` was tested, and the GI50 was 2.35 µM and the TGI was 12.8 µM. For `CC(N1CCOCC1)C(O)(c1ccccc1)c1ccccn1` (configuration not stated), the TGI was > 100 µM. In the case of `CC(/C=N/N=C(N)N)=N\N=C(N)N`, the TGI is reported as 856 µM. With `O=C(CCCCCCCCC(=O)N/N=C\c1cc(Cl)ccc1O)N/N=C\c1cc(Cl)ccc1O` the GI50 was 1.11 µM and the TGI was > 46.5 µM. `Oc1ccc(Cl)cc1/C=N\NC(=S)N/N=C/c1cc(Cl)ccc1O` was tested, and the GI50 was 3 µM and the TGI was > 100 µM. In the case of `CN=C(N)N/N=C(\C)c1ccc2c(c1)Cc1ccccc1-2`, the GI50 is reported as 1.9 µM and the TGI is reported as 4.32 µM. With `COc1cc(Cn2c(-c3ccccc3)cc3c2-c2oncc2CC3)cc(OC)c1` the GI50 was 0.209 µM and the TGI was 4.03 µM. In the case of `COc1cc2c(cc1OCCCOc1ccc(-c3nc4ccc(N5CCN(C)CC5)cc4[nH]3)cc1)N=C[C@@H]1CCCN1C2=O`, the GI50 is reported as < 0.01 µM and the TGI is reported as < 0.0359 µM. For `Nc1ccn(C2OC(C(OC3OC(CO)C(O)C(N)C3O)C(O)C(O)C(O)C(O)CO)C(N)C(O)C2O)c(=O)n1` (configuration not stated), the TGI was 58 µM. For `CCOC(=O)c1c(C)n(Cc2ccccc2)c2c1cc1oc(=O)c(=O)n3cnc2c13`, the GI50 was 16.2 µM and the TGI was > 50 µM. For `CN(C(=O)CNC(=O)/C=C/c1cccc(Cl)c1)C1CCS(=O)(=O)CC1`, the GI50 was 5.03 µM and the TGI was > 100 µM. In the case of `O=C(Nc1nc2ccccc2s1)c1cc(-c2ccc(F)cc2)n2nc(-c3ccccc3)cc2n1`, the GI50 is reported as 4.11 µM and the TGI is reported as > 100 µM. In the case of `C/C(=N/O)c1ccc(Nc2cc(-n3ccnc3)c3ccccc3n2)cc1`, the GI50 is reported as 15.1 µM and the TGI is reported as > 100 µM. In the case of `NNC(=O)C(O)C(O)C(=O)NN` (configuration not stated), the TGI is reported as > 100 µM.

These compounds were tested on SK-MEL-28 melanoma (assay: inhibition of tumour cell growth, NCI panel, 48 h).
Work on `CN1CCN(c2ccc3nc(-c4ccc(OCCCCN5CCN(CCCCN6C(=O)c7cccc8cccc(c78)C6=O)CC5)cc4)[nH]c3c2)CC1` yielded a GI50 of 19.4 µM and a TGI of 49.9 µM. Compound `CC1=C(N2CC2)C(=O)c2ccccc2C1=O` has a TGI of 4.33 µM. `NC(=O)c1ccc(N(C(N)=O)c2c(F)cccc2F)nc1-c1ccc(F)cc1F` was tested, and the GI50 was > 100 µM and the TGI was > 100 µM. In the case of `Cc1ccc(S(=O)(=O)NC(CO)C(=O)O)cc1` (configuration not stated), the TGI is reported as > 100 µM. H-QIYKKYRTWYRKAWKVLGKV-NH2 gave a GI50 of 4.89 µM and a TGI of 22.5 µM. `COc1cccc(NC2=C(Cl)C(=O)N(Cc3ccc(Cl)cc3)C2=O)c1` was tested, and the GI50 was 8.37 µM and the TGI was 36.3 µM. For `CC(N1CCOCC1)C(O)(c1ccccc1)c1ccccn1` (configuration not stated), the TGI was > 100 µM. For `CC(/C=N/N=C(N)N)=N\N=C(N)N`, the GI50 was > 80.2 µM and the TGI was 363 µM. For `O=C(CCCCCCCCC(=O)N/N=C\c1cc(Cl)ccc1O)N/N=C\c1cc(Cl)ccc1O`, the GI50 was 2.64 µM and the TGI was > 100 µM. With `Oc1ccc(Cl)cc1/C=N\NC(=S)N/N=C/c1cc(Cl)ccc1O` the GI50 was 4.58 µM and the TGI was > 100 µM. For `CN=C(N)N/N=C(\C)c1ccc2c(c1)Cc1ccccc1-2`, the GI50 was 2.22 µM and the TGI was 4.63 µM. `COc1cc(Cn2c(-c3ccccc3)cc3c2-c2oncc2CC3)cc(OC)c1` was tested, and the GI50 was 0.416 µM and the TGI was > 100 µM.
